Test results from patent US9149038B2, “4-amino-6-(heterocyclic)picolinates and 6-amino-2-(heterocyclic)pyrimidine-4-carboxylates and their use as herbicides” (Dow AgroSciences LLC, priority 2013, dated 2015).
Read-outs that look alike come from different tables or passages of the source.

How the values were obtained:
[1] = system: Key Broadleaf Weed and Crop Species; assay: Post-Emergent Test II: postemergent herbicidal activity, visual rating after 14 d (Table 7); format: in vivo; conditions: post-emergence, 336 h; for pest or weed control at 35 g/ha: 35 g ai/ha; for pest or weed control at 70 g/ha: 70 g ai/ha; for pest or weed control at 140 g/ha: 140 g ai/ha
Procedure, shortened: (§1)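 Visual 0-100% injury score (0 no injury, 100 complete kill) at 14 d post-spray, relative to untreated plants. Seedlings at 1st-2nd true leaf stage; track sprayer at 187 L/ha, highest rate plus ½×, ¼×, ⅛×, 1/16× serial dilutions. Subirrigated after treatment.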

[2] = system: Key Grass and Sedge Weeds as well as Grass Crops; assay: Post-Emergent Test II: postemergent herbicidal activity, visual rating after 14 d (Table 8); format: in vivo; conditions: post-emergence, 336 h; for pest or weed control at 35 g/ha: 35 g ai/ha; for pest or weed control at 70 g/ha: 70 g ai/ha; for pest or weed control at 140 g/ha: 140 g ai/ha
Procedure, shortened: as §1

[3] = lambsquarters (Chenopodium album), read-out: Visual Growth Reduction (%) 14 Days After Application CHEAL
[4] = oilseed rape, canola (Brassica napus), read-out: Visual Growth Reduction (%) 14 Days After Application BRSNN
[5] = redroot pigweed (Amaranthus retroflexus), read-out: Visual Growth Reduction (%) 14 Days After Application AMARE
[6] = sunflower (Helianthus annuus), read-out: Visual Growth Reduction (%) 14 Days After Application HELAN
[7] = velvetleaf (Abutilon theophrasti), read-out: Visual Growth Reduction (%) 14 Days After Application ABUTH
[8] = wild poinsettia (Euphorbia heterophylla), read-out: Visual Growth Reduction (%) 14 Days After Application EPHHL
[9] = barnyardgrass (Echinochloa crus-galli), read-out: Visual Growth Reduction (%) 14 Days After Application ECHCG
[10] = giant foxtail (Setaria faberi), read-out: Visual Growth Reduction (%) 14 Days After Application SETFA
[11] = maize, corn (Zea mays), read-out: Visual Growth Reduction (%) 14 Days After Application ZEAMX
[12] = rice (Oryza sativa), read-out: Visual Growth Reduction (%) 14 Days After Application ORYSA
[13] = wheat, spring (Triticum aestivum), read-out: Visual Growth Reduction (%) 14 Days After Application TRZAS
[14] = yellow nutsedge (Cyperus esculentus), read-out: Visual Growth Reduction (%) 14 Days After Application CYPES

COC(=O)c1nc(-c2ccc3c(c2)OC(F)(F)O3)c(C)c(N)c1Cl [Compound 49]
95 to 100%: pest or weed control at 140 g/ha [1, 6]
85 to 94%: pest or weed control at 140 g/ha [1, 3] | pest or weed control at 35 g/ha [1, 6] | pest or weed control at 70 g/ha [1, 6]
30 to 44%: pest or weed control at 70 g/ha [1, 3] | pest or weed control at 140 g/ha [1, 7] | pest or weed control at 35 g/ha [2, 11] | pest or weed control at 70 g/ha [2, 13] | pest or weed control at 140 g/ha [2, 13]
60 to 74%: pest or weed control at 70 g/ha [2, 11] | pest or weed control at 140 g/ha [2, 11]
0 to 29%: pest or weed control at 35 g/ha [1, 3] | pest or weed control at 35 g/ha [1, 4] | pest or weed control at 70 g/ha [1, 4] | pest or weed control at 140 g/ha [1, 4] | pest or weed control at 35 g/ha [1, 5] | pest or weed control at 70 g/ha [1, 5] | pest or weed control at 140 g/ha [1, 5] | pest or weed control at 35 g/ha [1, 7] | pest or weed control at 70 g/ha [1, 7] | pest or weed control at 35 g/ha [1, 8] | pest or weed control at 70 g/ha [1, 8] | pest or weed control at 140 g/ha [1, 8] | pest or weed control at 35 g/ha [2, 9] | pest or weed control at 70 g/ha [2, 9] | pest or weed control at 140 g/ha [2, 9] | pest or weed control at 35 g/ha [2, 10] | pest or weed control at 70 g/ha [2, 10] | pest or weed control at 140 g/ha [2, 10] | pest or weed control at 35 g/ha [2, 12] | pest or weed control at 70 g/ha [2, 12] | pest or weed control at 140 g/ha [2, 12] | pest or weed control at 35 g/ha [2, 13] | pest or weed control at 35 g/ha [2, 14] | pest or weed control at 70 g/ha [2, 14] | pest or weed control at 140 g/ha [2, 14]

COC(=O)c1nc(-c2c(F)cc3c(c2F)OCO3)cc(N)c1Cl [Compound 48]
0 to 29%: pest or weed control at 35 g/ha [1, 6] | pest or weed control at 35 g/ha [2, 10] | pest or weed control at 35 g/ha [2, 13] | pest or weed control at 35 g/ha [2, 14] | pest or weed control at 70 g/ha [2, 14]
60 to 74%: pest or weed control at 140 g/ha [1, 6] | pest or weed control at 70 g/ha [2, 10] | pest or weed control at 70 g/ha [2, 11] | pest or weed control at 140 g/ha [2, 12] | pest or weed control at 140 g/ha [2, 13]
45 to 59%: pest or weed control at 70 g/ha [1, 6] | pest or weed control at 70 g/ha [2, 12]
95 to 100%: pest or weed control at 35 g/ha [1, 3] | pest or weed control at 70 g/ha [1, 3] | pest or weed control at 140 g/ha [1, 3] | pest or weed control at 35 g/ha [1, 4] | pest or weed control at 70 g/ha [1, 4] | pest or weed control at 140 g/ha [1, 4] | pest or weed control at 70 g/ha [1, 5] | pest or weed control at 140 g/ha [1, 5] | pest or weed control at 70 g/ha [1, 7] | pest or weed control at 140 g/ha [1, 7] | pest or weed control at 35 g/ha [1, 8] | pest or weed control at 70 g/ha [1, 8] | pest or weed control at 140 g/ha [1, 8]
30 to 44%: pest or weed control at 35 g/ha [2, 11] | pest or weed control at 35 g/ha [2, 12] | pest or weed control at 70 g/ha [2, 13] | pest or weed control at 140 g/ha [2, 14]
75 to 84%: pest or weed control at 35 g/ha [2, 9] | pest or weed control at 70 g/ha [2, 9] | pest or weed control at 140 g/ha [2, 10] | pest or weed control at 140 g/ha [2, 11]
85 to 94%: pest or weed control at 35 g/ha [1, 5] | pest or weed control at 35 g/ha [1, 7] | pest or weed control at 140 g/ha [2, 9]
